From the supplement of paper PMC11368000 come the findings set out here.

Common to all, as to settings: exposure time: 90 min
The subject of experiment [1] is 1083 (donor line of iPSC-derived cardiomyocytes). Nature of the experiment: POD (EC95) for loss of peak frequency (asystole) vs vehicle; higher = less potent (higher point of departure). The protocol:
(§1)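 Human iPSC-derived cardiomyocytes from 16 donors were exposed for 90 min at 37 °C to each PFAS at 0.1, 1, 10 and 100 µM in 0.5% DMSO, 384-well plates. Kinetic Ca2+ flux (FLIPR) and Hoechst nuclei counts were normalised to vehicle wells and fitted with a hierarchical Bayesian Hill model to give donor-specific PODs: EC05 for beat-rate increase or decrease and for decay-to-rise ratio increase (QT proxy), EC95 for peak-frequency loss (asystole), EC10 for total cell number loss. 0.03 µM is the lower bound.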

In experiment [2] the test system is 1118 (donor line of iPSC-derived cardiomyocytes). Described as above. As to the method: as §1
Experiment [3] relates to 11235 (donor line of iPSC-derived cardiomyocytes). The description is as above. The protocol:
as §1

The test system of experiment [4] is 1309 (donor line of iPSC-derived cardiomyocytes). The experiment is described as above. As to the method:
as §1

The subject of experiment [5] is 1368 (donor line of iPSC-derived cardiomyocytes). The experiment is described as above. As to the method: as §1
Experiment [6] deals with 1392 (donor line of iPSC-derived cardiomyocytes). The description is as above. The protocol: as §1
The subject of experiment [7] is 1434 (donor line of iPSC-derived cardiomyocytes). Described as above. The protocol: as §1
Experiment [8] has as its system 1516 (donor line of iPSC-derived cardiomyocytes). Described as above. As to the method: as §1
Experiment [9] relates to 1518 (donor line of iPSC-derived cardiomyocytes). Described as above. The protocol: as §1
Experiment [10] concerns 1531 (donor line of iPSC-derived cardiomyocytes). The experiment is described as above. As to the method:
as §1

Experiment [11] concerns 1535 (donor line of iPSC-derived cardiomyocytes). Described as above. As to the method: as §1
Experiment [12] has as its system 1565 (donor line of iPSC-derived cardiomyocytes). The description is as above. The protocol:
as §1

Experiment [13] concerns 20032 (donor line of iPSC-derived cardiomyocytes). The experiment is described as above. As to the method:
as §1

Experiment [14] deals with 20084 (donor line of iPSC-derived cardiomyocytes). The description is as above. The protocol:
as §1

Experiment [15] has as its system 30145 (donor line of iPSC-derived cardiomyocytes). The description is as above. As to the method:
as §1

Experiment [16] concerns 30171 (donor line of iPSC-derived cardiomyocytes). Described as above. As to the method:
as §1

For experiment [17], the system named is 1518. Nature of the experiment: POD (EC05) for increase in beat frequency (positive chronotrope) vs vehicle; higher = less potent (higher point of departure). An outline of the steps:
(§2)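 Human iPSC-derived cardiomyocytes from 16 donors were cultured 14 days in gelatin-coated 384-well plates and loaded 2 h with fluorescent Ca2+ dye. They were then exposed for 90 min at 37 °C to 0.1, 1, 10 and 100 µM (final, 0.5% DMSO). Ca2+ flux was recorded on a FLIPR Tetra (8 frames/s, 100 s) before and after exposure. Donor-specific points of departure came from hierarchical Bayesian Hill fits to vehicle-normalised beat frequency, decay-to-rise ratio or peak frequency. Thresholds were 5% change, or 95% loss for peak frequency.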

Experiment [18] concerns 1531. Described as above. A digest of the protocol:
as §2

The subject of experiment [19] is 1535. Described as above. An outline of the steps:
as §2

For experiment [20], the system named is 20084. Described as above. A digest of the protocol:
as §2

`COC(=O)C(F)(F)C(F)(F)OC(F)(C(F)(F)F)C(F)(F)OC(F)=C(F)F` (stereo not given) [Methyl_perfluoro(3-(1-ethenyloxypropan-2-yloxy)propanoate)]: the POD vs vehicle in experiment [1], in experiment [2], in [3], in experiment [4], in experiment [5] and in [6] was greater than 100 µM each time. Moreover, the POD vs vehicle in experiment [7], in experiment [8], in [9], in [10], in experiment [11] and in [12] was greater than 100 µM in each case. Moreover, the POD vs vehicle in experiment [13], in [14], in experiment [15], in [16], in experiment [17] and in experiment [18] was greater than 100 µM each time. Moreover, the POD vs vehicle in [19] and in experiment [20] was greater than 100 µM throughout.

Turning to `NC(=O)C(F)(F)C(F)(F)C(F)(F)C(F)(F)F` [Nonafluoropentanamide], the POD vs vehicle was greater than 100 µM in experiment [1]; 84.9 µM in [2]; greater than 100 µM in experiment [3]; greater than 100 µM in [4]; greater than 100 µM in [5]; greater than 100 µM in experiment [6]. In addition, the POD vs vehicle in experiment [7], in experiment [8], in experiment [9], in experiment [10], in [11] and in experiment [12] was greater than 100 µM in each case. Also, the POD vs vehicle in experiment [13], in [14], in experiment [15], in [16], in experiment [17] and in [18] was greater than 100 µM each time. Moreover, the POD vs vehicle in [19] and in experiment [20] was greater than 100 µM in each case.

With `NC(=O)C(F)(F)C(F)(F)C(F)(F)C(F)(F)C(N)=O` [Octafluoroadipamide], the POD vs vehicle in experiment [1], in experiment [2], in experiment [3], in experiment [4], in experiment [5] and in experiment [6] was greater than 100 µM in each case. In addition, the POD vs vehicle in [7], in experiment [8], in experiment [9], in [10], in [11] and in experiment [12] was greater than 100 µM throughout. Besides, the POD vs vehicle in experiment [13], in [14], in experiment [15], in [16], in experiment [17] and in [18] was greater than 100 µM each time. The POD vs vehicle in experiment [19] and in experiment [20] was greater than 100 µM each time.

Turning to `O=C(O)C(F)(F)C(F)(F)C(F)(F)C(F)(F)C(=O)O` [Octafluoroadipic_acid], the POD vs vehicle in experiment [1], in experiment [2], in experiment [3], in experiment [4], in experiment [5] and in experiment [6] was greater than 100 µM throughout. In addition, the POD vs vehicle in experiment [7], in experiment [8], in experiment [9], in [10], in experiment [11] and in experiment [12] was greater than 100 µM in each case. Besides, the POD vs vehicle in experiment [13], in experiment [14], in [15], in [16], in experiment [17] and in experiment [18] was greater than 100 µM each time. In addition, the POD vs vehicle in experiment [19] and in experiment [20] was greater than 100 µM each time.

In the case of `O=C(O)C(F)(F)C(F)(F)C(F)(F)OC(F)(F)F` [Perfluoro(4-methoxybutanoic)_acid], the POD vs vehicle in experiment [1], in [2], in experiment [3], in experiment [4], in experiment [5] and in [6] was greater than 100 µM throughout. Also, the POD vs vehicle in experiment [7], in experiment [8], in experiment [9], in experiment [10], in [11] and in [12] was greater than 100 µM each time. Also, the POD vs vehicle in experiment [13], in [14], in experiment [15], in experiment [16], in experiment [17] and in [18] was greater than 100 µM in each case. Besides, the POD vs vehicle in experiment [19] and in [20] was greater than 100 µM each time.
